Experimental findings from publication PMC8776063, “Aurora Kinase A Is Involved in Controlling the Localization of Aquaporin-2 in Renal Principal Cells” (International Journal of Molecular Sciences, 2022) are described below.

Where two headings read alike, the source gives them in different places.

Holding throughout (assay): Thermal shift assay
Holding throughout (type): binding

In one test the target is T1, MAPK1 (Homo sapiens, UniProt P28482).
T1 construct: purchased in-house thermal shift (DSF) kinase panel (SGC Frankfurt); Promega NanoBRET for AURKA/B/C
T1 sequence (P28482 whole entry): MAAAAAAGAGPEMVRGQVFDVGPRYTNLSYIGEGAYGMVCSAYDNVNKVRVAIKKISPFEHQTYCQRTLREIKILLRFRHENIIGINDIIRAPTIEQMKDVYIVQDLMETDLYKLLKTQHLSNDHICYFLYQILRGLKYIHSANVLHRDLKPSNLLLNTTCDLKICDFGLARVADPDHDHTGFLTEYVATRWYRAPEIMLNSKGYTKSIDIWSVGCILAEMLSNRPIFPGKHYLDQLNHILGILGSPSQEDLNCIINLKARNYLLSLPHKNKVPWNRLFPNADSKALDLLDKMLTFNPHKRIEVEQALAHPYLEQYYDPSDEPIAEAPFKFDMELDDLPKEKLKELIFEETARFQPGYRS
The following applies: compound 10 µM; n = 3.

The target in a further test is T2, GAK (Homo sapiens, UniProt O14976).
T2 construct: purchased in-house thermal shift (DSF) kinase panel (SGC Frankfurt); Promega NanoBRET for AURKA/B/C
T2 sequence (O14976 14-351): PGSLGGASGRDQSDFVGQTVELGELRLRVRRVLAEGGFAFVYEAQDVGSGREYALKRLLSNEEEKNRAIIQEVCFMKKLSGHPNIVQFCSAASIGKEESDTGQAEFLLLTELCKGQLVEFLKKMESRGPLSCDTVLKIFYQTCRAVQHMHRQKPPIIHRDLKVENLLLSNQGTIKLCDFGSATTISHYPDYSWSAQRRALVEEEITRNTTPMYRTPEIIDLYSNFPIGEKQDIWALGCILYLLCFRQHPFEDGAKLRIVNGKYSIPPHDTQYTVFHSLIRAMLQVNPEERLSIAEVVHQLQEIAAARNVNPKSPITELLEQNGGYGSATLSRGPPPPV
Conditions: read-out: ΔTm GAK.

For a further test, the target named is T3, STK39 (Homo sapiens, UniProt Q9UEW8).
T3 construct: purchased in-house thermal shift (DSF) kinase panel (SGC Frankfurt); Promega NanoBRET for AURKA/B/C
The following applies: read-out: ΔTm STK39.

The target of another test is T4, STK3 (Homo sapiens, UniProt Q13188).
T4 construct: purchased in-house thermal shift (DSF) kinase panel (SGC Frankfurt); Promega NanoBRET for AURKA/B/C
T4 sequence (Q13188 16-313): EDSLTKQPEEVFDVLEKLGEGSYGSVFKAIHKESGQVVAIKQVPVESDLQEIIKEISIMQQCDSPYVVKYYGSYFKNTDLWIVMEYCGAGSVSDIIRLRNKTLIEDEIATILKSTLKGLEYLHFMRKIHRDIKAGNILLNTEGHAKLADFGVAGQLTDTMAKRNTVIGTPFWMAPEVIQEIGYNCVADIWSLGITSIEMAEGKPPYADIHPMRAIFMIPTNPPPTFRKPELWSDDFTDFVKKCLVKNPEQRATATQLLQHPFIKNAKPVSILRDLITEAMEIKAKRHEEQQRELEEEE
Conditions: read-out: ΔTm STK3.

The target in another test is T5, PAK1 (Homo sapiens, UniProt Q13153).
T5 construct: purchased in-house thermal shift (DSF) kinase panel (SGC Frankfurt); Promega NanoBRET for AURKA/B/C
T5 sequence (Q13153 249-545): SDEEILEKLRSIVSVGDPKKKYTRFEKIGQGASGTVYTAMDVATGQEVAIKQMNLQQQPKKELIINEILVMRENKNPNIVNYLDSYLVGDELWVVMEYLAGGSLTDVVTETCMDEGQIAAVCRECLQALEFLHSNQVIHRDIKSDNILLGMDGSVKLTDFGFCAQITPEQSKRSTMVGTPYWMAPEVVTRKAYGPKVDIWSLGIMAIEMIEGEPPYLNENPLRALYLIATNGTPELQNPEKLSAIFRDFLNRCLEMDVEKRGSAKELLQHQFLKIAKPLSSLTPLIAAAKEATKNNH
Conditions: read-out: ΔTm PAK1.

The target in the next test is T6, CAMKK2 (Homo sapiens, UniProt Q96RR4).
T6 construct: purchased in-house thermal shift (DSF) kinase panel (SGC Frankfurt); Promega NanoBRET for AURKA/B/C
T6 sequence (Q96RR4 161-449): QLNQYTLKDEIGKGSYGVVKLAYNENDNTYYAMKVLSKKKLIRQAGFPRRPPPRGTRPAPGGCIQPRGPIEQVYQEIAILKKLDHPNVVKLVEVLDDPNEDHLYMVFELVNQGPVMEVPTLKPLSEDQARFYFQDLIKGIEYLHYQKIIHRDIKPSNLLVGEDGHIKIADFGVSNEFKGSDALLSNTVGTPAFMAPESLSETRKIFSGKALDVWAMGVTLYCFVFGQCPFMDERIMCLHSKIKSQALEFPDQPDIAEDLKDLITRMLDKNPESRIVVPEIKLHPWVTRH
Conditions: read-out: ΔTm CAMKK2.

The next test has as its target T7, STK17A (Homo sapiens, UniProt Q9UEE5).
T7 construct: purchased in-house thermal shift (DSF) kinase panel (SGC Frankfurt); Promega NanoBRET for AURKA/B/C
T7 sequence (Q9UEE5 61-321): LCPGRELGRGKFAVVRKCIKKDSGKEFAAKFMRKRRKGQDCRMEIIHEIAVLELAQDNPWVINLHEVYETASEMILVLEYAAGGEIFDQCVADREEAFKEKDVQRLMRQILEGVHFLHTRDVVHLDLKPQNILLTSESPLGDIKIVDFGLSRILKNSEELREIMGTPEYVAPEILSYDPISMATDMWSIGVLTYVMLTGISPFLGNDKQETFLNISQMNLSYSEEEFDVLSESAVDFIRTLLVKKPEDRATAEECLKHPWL
The following applies: read-out: ΔTm STK17A.

The target of a further test is T8, CASK (Homo sapiens, UniProt O14936).
T8 construct: purchased in-house thermal shift (DSF) kinase panel (SGC Frankfurt); Promega NanoBRET for AURKA/B/C
T8 sequence (O14936 1-337): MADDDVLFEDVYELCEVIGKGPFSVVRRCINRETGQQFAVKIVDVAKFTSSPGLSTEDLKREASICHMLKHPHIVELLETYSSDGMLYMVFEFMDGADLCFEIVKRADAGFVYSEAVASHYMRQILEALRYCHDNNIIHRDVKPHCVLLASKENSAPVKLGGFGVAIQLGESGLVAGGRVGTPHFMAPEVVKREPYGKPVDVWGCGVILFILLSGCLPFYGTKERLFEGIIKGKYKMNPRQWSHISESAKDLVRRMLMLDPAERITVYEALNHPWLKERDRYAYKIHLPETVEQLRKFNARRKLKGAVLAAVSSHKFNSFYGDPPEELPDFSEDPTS
The following applies: read-out: ΔTm CASK.

Another test deals with T9, MAP2K6 (Homo sapiens, UniProt P52564).
T9 construct: purchased in-house thermal shift (DSF) kinase panel (SGC Frankfurt); Promega NanoBRET for AURKA/B/C
T9 sequence (P52564 47-334): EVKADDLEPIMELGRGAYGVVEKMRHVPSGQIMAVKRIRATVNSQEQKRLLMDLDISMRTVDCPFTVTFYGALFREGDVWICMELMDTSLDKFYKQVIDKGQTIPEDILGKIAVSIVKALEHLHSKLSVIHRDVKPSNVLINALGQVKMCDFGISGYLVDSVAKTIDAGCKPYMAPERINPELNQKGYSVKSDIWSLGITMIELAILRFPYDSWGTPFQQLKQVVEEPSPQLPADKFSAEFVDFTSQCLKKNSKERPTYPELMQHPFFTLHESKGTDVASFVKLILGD
Conditions: read-out: ΔTm MAP2K6.

In another test the target is T10, PIM1 (Homo sapiens, UniProt P11309).
T10 construct: purchased in-house thermal shift (DSF) kinase panel (SGC Frankfurt); Promega NanoBRET for AURKA/B/C
T10 sequence (P11309 whole entry): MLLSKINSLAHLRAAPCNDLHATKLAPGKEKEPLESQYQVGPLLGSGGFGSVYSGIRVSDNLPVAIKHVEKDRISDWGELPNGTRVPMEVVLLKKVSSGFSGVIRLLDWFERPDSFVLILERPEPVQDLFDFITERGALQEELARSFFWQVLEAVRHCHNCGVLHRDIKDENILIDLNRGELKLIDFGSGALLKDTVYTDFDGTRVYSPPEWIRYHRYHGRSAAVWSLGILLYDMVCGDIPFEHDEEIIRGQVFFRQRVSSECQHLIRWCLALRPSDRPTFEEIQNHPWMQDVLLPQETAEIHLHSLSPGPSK
The following applies: read-out: ΔTm PIM1.

A further test deals with T11, BRAF (Homo sapiens, UniProt P15056).
T11 construct: purchased in-house thermal shift (DSF) kinase panel (SGC Frankfurt); Promega NanoBRET for AURKA/B/C
T11 sequence (P15056 448-723): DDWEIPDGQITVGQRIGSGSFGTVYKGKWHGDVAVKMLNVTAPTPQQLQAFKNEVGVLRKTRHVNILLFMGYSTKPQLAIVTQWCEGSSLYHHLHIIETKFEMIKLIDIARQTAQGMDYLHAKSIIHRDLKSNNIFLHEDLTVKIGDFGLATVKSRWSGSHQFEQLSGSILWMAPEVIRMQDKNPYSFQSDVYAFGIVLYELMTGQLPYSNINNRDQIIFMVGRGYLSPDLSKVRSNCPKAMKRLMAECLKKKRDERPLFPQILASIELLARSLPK
Conditions: read-out: ΔTm BRAF.

The target in another test is T12, MERTK (Homo sapiens, UniProt Q12866).
T12 construct: purchased in-house thermal shift (DSF) kinase panel (SGC Frankfurt); Promega NanoBRET for AURKA/B/C
T12 sequence (Q12866 570-864): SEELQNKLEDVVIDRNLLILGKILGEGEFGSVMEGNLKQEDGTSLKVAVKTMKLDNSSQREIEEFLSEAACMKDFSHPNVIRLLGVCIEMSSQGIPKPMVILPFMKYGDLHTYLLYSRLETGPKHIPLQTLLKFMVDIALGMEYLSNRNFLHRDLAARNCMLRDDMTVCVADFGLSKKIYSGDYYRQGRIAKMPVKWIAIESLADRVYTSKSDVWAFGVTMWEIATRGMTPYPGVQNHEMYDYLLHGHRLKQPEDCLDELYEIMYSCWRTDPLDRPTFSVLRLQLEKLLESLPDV
Conditions: read-out: ΔTm MERTK.

The term ΔTm denotes the change in melting temperature against a reference sample.

As for `CCN1CCN(C(=O)Cc2ccc(Nc3ncc(F)c(Nc4ccc(C(=O)Nc5ccccc5Cl)cc4)n3)cc2)CC1` [Aurora-A inhibitor I, reference compound], the thermal shift (ΔTm) at 10 µM at MAPK1 came out at 0.4 °C; on GAK it was 5 °C; on STK39, 2.4 °C; at STK3 it was 2.6 °C; at PAK1, 0.5 °C; at CAMKK2 it was 2.3 °C. Besides, the ΔTm at 10 µM at STK17A came out at 1.9 °C; at CASK, 0.2 °C; at MAP2K6 it was 0.6 °C; on PIM1 it was 0.2 °C; on BRAF, 1.1 °C; on MERTK it was 1.7 °C.

On to `O=C(Cc1ccc(Nc2ncc(F)c(Nc3ccc(C(=O)Nc4ccccc4Cl)cc3)n2)cc1)NCCN1CCOCC1` [ERJ2-04], for which the shift in melting temperature (ΔTm) at 10 µM at MAPK1 was 0.3 °C; on GAK (compound 10 µM, n = 3), 4.5 °C; at STK39 (compound 10 µM, n = 3), 2.1 °C; on STK3 (compound 10 µM, n = 3), 1.3 °C; at PAK1 (compound 10 µM, n = 3), 0.6 °C; on CAMKK2 (compound 10 µM, n = 3) it was 1.3 °C. The ΔTm at 10 µM is 1.4 °C at STK17A (compound 10 µM, n = 3); 0.1 °C at CASK (compound 10 µM, n = 3); 0.4 °C at MAP2K6 (compound 10 µM, n = 3); -0.2 °C on PIM1 (compound 10 µM, n = 3); 0.8 °C at BRAF (compound 10 µM, n = 3); 0.9 °C on MERTK (compound 10 µM, n = 3).

Regarding `NC(=O)Cc1ccc(Nc2ncc(F)c(Nc3ccc(C(=O)Nc4ccccc4Cl)cc3)n2)cc1` [ERJ2-06], the ΔTm at 10 µM at MAPK1 came out at 0.1 °C; at GAK (compound 10 µM, n = 3), 5.1 °C; on STK39 (compound 10 µM, n = 3), 2.4 °C; on STK3 (compound 10 µM, n = 3), 3.1 °C; at PAK1 (compound 10 µM, n = 3) it was 0.7 °C; at CAMKK2 (compound 10 µM, n = 3), 2.2 °C. The ΔTm at 10 µM was found to be 2.2 °C at STK17A (compound 10 µM, n = 3); 0.1 °C on CASK (compound 10 µM, n = 3); 0.8 °C at MAP2K6 (compound 10 µM, n = 3); 0.2 °C on PIM1 (compound 10 µM, n = 3); 0.5 °C at BRAF (compound 10 µM, n = 3); 1.3 °C on MERTK (compound 10 µM, n = 3).

`CCN1CCN(C(=O)Cc2ccc(Nc3ncc(F)c(Nc4ccc(C(=O)Nc5ccccc5)cc4)n3)cc2)CC1` [ERJ2-11]: the shift in melting temperature (ΔTm) at 10 µM at MAPK1 is -0.1 °C; on GAK (compound 10 µM, n = 3), 4.9 °C; on STK39 (compound 10 µM, n = 3), 2.6 °C; on STK3 (compound 10 µM, n = 3), 2 °C; at PAK1 (compound 10 µM, n = 3), 0.5 °C; at CAMKK2 (compound 10 µM, n = 3) it was 3.1 °C. Besides, the shift in melting temperature (ΔTm) at 10 µM at STK17A (compound 10 µM, n = 3) was 1.8 °C; on CASK (compound 10 µM, n = 3) it was -0.1 °C; on MAP2K6 (compound 10 µM, n = 3), 0.7 °C; at PIM1 (compound 10 µM, n = 3), 0.4 °C; on BRAF (compound 10 µM, n = 3), 1.8 °C; on MERTK (compound 10 µM, n = 3), 1.7 °C.

In the case of `CCN1CCN(C(=O)Cc2ccc(Nc3ncc(F)c(Nc4ccc(C(=O)O)cc4)n3)cc2)CC1` [ERJ2-12], the ΔTm at 10 µM is -0.1 °C at MAPK1; 2.7 °C at GAK (compound 10 µM, n = 3); 0.2 °C at STK39 (compound 10 µM, n = 3); 0.1 °C at STK3 (compound 10 µM, n = 3); 0.2 °C on PAK1 (compound 10 µM, n = 3); 1.8 °C on CAMKK2 (compound 10 µM, n = 3). Moreover, the ΔTm at 10 µM amounted to 0.4 °C on STK17A (compound 10 µM, n = 3); 0 °C at CASK (compound 10 µM, n = 3); 0.8 °C at MAP2K6 (compound 10 µM, n = 3); 1.1 °C at PIM1 (compound 10 µM, n = 3); 0.7 °C at BRAF (compound 10 µM, n = 3); 0.3 °C on MERTK (compound 10 µM, n = 3).
